Assay results published in patent publication US20250195475A1, “CDK2 INHIBITOR AND PREPARATION METHOD AND USE THEREOF” (INVENTISBIO CO., LTD., priority 2022, published 2025).

How the values were obtained:
Assay type in all cases: biochemical
CDK1/CyclinB1 = CDK1/CyclinB1 (Homo sapiens (Human), UniProt P06493); test: CDK1 kinase assay (TR-FRET); details: CDK1/CyclinB 7.5 nM, ATP 17 μM
Protocol: (§1) The purpose of these assays is to evaluate the inhibition of small molecule inhibitors by using TR-FRET assay.
(§2) Compound Preparation. Dissslove the compounds into DMSO solution to make 10 mM DMSO stock. Serially dilute the stock solution from highest concentration down to lowest in DMSO to make the compound stock plate (100× stock plates). To make 5× compound intermediate plate, add 38 μL of assay buffer (50 mM HEPES, pH 7.5, 0.05 mg/mL BSA, 10 mM MgCl2, 1 mM EGTA, 0.01% Tween-20, 2 mM DTT) into each well of the V-bottom plate; then transfer 2 μL of the stock compound solution of each concentration from the compound stock plate (100× stock), and mix well.
(§3) Enzyme reaction. Transfer 2 μL compound from 5× intermediate plate into assay plate, then add 4 μL/well 2.5× Enzyme mix to assay plate, incubation for 10 min at room temperature. For positive control wells, add 4 μL/well assay buffer instead of Enzyme mix. Then add 4 μL/well 2.5× Substrate mix to assay plate, and incubation at 25° C. for 30 min at room temperature. After reaction, 10 μL 2× Detection mix (final 15 mM EDTA, 1× LANCE Detection Buffer, 0.5 nM Detection antibody) was added and incubated for 1 h prior to detection with excitation and emission at 320 and 665 nm (Tecan Spark® TR-FRET mode Tecan).
(§4) Inhibition rate (IR) of the tested compounds was determined by the following formula: IR (%)=(average High control−compound well)/(average High control−average Low control)*100%. Fit the compound IC50 from non-linear regression equation: Y=Bottom+(Top−Bottom)/(1+10^((Log IC50−X)*HillSlope)). X: Log of cpd concentration; Y: Inhibition rate (TR); Top and Bottom: Plateaus in same units as Y, log IC50: same log units as X; HillSlope: Slope factor or Hill slope.

CDK2/CyclinE1 = CDK2/CyclinE1 (Homo sapiens (Human), UniProt P24941); test: CDK2 kinase assay (TR-FRET); details: CDK2/CyclinE1 0.5 nM, ATP 50 μM
How it was run: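 Compounds were preincubated 10 min at room temperature with enzyme in 50 mM HEPES pH 7.5, 10 mM MgCl2, 1 mM EGTA, 2 mM DTT, 0.01% Tween-20, BSA. Substrate reaction ran 30 min at 25 °C, was stopped with EDTA and read by LANCE TR-FRET (ex 320/em 665 nm) after 1 h. IC50 came from a four-parameter fit of % inhibition.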

CDK4/CyclinD1 = CDK4/CyclinD1 (Homo sapiens (Human), UniProt P11802); test: CDK4 kinase assay (TR-FRET); details: CDK4/CyclinD1 0.50 nM, ATP 225 μM
Sequence of CDK4/CyclinD1 (P11802 whole entry): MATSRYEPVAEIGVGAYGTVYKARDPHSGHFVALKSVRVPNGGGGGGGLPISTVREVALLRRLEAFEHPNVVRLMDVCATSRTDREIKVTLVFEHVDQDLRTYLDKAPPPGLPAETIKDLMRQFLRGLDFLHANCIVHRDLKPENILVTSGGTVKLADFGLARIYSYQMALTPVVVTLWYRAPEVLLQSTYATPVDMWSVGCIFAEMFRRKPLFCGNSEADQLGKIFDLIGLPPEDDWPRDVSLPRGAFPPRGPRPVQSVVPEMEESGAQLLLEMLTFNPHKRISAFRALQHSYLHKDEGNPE
Sequence of CDK4/CyclinD1 (P24385 whole entry partner): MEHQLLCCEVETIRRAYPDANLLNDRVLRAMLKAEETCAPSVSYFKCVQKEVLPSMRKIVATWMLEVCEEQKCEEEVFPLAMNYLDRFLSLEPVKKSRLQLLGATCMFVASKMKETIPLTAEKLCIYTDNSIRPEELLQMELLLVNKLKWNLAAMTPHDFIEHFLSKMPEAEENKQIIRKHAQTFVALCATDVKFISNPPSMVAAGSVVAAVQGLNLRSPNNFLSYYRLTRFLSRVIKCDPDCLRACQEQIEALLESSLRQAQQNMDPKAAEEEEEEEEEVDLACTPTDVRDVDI
Protocol: as §1, §2, §3, §4

CDK6/CyclinD3 = CDK6/CyclinD3 (Homo sapiens (Human), UniProt Q00534); test: CDK6 kinase assay (TR-FRET); details: CDK6/CyclinD3 0.50 nM, ATP 140 μM
Sequence of CDK6/CyclinD3 (Q00534 whole entry): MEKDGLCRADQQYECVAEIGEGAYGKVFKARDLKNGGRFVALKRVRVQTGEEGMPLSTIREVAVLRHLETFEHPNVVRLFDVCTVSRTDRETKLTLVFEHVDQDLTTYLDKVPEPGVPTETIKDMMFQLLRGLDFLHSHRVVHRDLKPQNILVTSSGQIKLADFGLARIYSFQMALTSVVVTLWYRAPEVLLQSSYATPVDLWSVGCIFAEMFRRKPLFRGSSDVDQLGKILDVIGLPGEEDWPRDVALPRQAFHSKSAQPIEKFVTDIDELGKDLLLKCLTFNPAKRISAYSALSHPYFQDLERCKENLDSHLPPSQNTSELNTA
Sequence of CDK6/CyclinD3 (P30281 whole entry partner): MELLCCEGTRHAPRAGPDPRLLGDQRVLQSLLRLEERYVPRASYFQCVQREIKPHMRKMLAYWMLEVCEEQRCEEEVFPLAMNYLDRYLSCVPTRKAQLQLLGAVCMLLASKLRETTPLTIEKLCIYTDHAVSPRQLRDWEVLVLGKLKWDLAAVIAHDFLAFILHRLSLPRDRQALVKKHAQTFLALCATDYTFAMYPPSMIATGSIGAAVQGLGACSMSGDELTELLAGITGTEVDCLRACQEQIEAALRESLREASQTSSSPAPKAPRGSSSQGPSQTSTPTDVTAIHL
Protocol: as §1, §2, §3, §4

GSK3β = GSK3β (Homo sapiens (Human), UniProt P49841); test: GSK3β kinase assay (TR-FRET); details: GSK3β 1.0 nM, ATP 8.0 μM
Sequence of GSK3β (P49841 whole entry): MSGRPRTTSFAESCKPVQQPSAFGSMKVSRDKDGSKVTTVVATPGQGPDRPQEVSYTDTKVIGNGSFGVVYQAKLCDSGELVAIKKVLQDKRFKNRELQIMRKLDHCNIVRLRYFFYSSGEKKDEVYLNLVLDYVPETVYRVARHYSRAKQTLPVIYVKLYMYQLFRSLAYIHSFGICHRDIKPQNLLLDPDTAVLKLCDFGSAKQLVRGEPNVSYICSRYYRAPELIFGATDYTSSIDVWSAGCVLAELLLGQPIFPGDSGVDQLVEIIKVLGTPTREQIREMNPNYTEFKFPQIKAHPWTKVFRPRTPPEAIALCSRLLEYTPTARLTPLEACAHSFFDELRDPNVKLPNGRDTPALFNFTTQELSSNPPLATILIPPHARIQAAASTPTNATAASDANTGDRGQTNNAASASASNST
Protocol: as §1, §2, §3, §4

Sequence of CDK1/CyclinB1 (P06493 whole entry): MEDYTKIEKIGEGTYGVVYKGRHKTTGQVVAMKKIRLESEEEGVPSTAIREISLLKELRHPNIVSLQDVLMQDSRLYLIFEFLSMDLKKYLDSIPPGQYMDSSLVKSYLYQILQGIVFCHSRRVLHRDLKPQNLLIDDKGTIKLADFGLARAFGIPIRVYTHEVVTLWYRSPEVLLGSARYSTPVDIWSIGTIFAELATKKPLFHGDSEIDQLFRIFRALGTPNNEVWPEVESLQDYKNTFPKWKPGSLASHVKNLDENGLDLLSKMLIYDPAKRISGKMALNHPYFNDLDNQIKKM
Sequence of CDK1/CyclinB1 (P14635 whole entry partner): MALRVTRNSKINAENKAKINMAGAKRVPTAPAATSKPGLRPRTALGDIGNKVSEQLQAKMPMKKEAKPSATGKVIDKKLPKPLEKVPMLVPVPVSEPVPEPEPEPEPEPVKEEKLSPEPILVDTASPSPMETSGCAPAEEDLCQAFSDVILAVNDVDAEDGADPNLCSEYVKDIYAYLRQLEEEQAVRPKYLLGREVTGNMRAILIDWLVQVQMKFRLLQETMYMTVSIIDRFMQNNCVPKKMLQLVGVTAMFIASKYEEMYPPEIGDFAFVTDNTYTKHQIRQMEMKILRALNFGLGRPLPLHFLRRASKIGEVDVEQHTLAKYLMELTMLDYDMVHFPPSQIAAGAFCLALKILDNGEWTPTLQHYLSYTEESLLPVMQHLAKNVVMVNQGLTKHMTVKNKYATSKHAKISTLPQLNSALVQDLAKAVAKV

Work on `Cn1nccc1C(=O)Nc1cc([C@H]2CC[C@@H](OC(=O)NC3COC4(CCC4)C3)C2)[nH]n1` (single isomer, unassigned) [Compound 44] yielded an IC50 (CDK1/CyclinB1) of 255 nM and an IC50 (CDK2/CyclinE1) of 3.2 nM.

In the case of `CC(C)NC(=O)OC1COC(c2cc(NC(=O)Cc3cc(F)cc(F)c3)n[nH]2)C1` (stereo not drawn) [Compound 24], the IC50 (CDK1/CyclinB1) is reported as 102 nM and the IC50 (CDK2/CyclinE1) is reported as 1.8 nM.

`CC(C)NC(=O)O[C@@H]1CC[C@H](c2cc(NC(=O)[C@@H]3CCN(S(C)(=O)=O)C3)n[nH]2)C1` [Compound 25] gave an IC50 (CDK4/CyclinD1) of 510 nM, an IC50 (CDK6/CyclinD3) of 899 nM and an IC50 (CDK1/CyclinB1) of 54.9 nM. For the same molecule, the IC50 (CDK2/CyclinE1) was 1.2 nM.

For `CC[C@H](C)NC(=O)O[C@@H]1CC[C@H](c2cc(NC(=O)[C@H]3C[C@@H]3COC)n[nH]2)C1` [Compound 33], the IC50 (CDK4/CyclinD1) was 652 nM, the IC50 (CDK6/CyclinD3) was 574 nM and the IC50 (CDK1/CyclinB1) was 118 nM. It also gave an IC50 (CDK2/CyclinE1) of 1.9 nM.

Work on `CCS(=O)(=O)N1CC[C@@H](C(=O)Nc2cc([C@H]3CC[C@@H](OC(=O)NC(C)C)C3)[nH]n2)C1` [Compound 49] yielded an IC50 (GSK3β) of 395 nM, an IC50 (CDK1/CyclinB1) of 132 nM and an IC50 (CDK2/CyclinE1) of 2.2 nM.

Work on `CC1(NC(=O)OC2COC(c3cc(NC(=O)Cc4cc(F)cc(F)c4)n[nH]3)C2)CCOC1` (stereo not drawn) [Compound 52] yielded an IC50 (GSK3β) of 1000 nM, an IC50 (CDK4/CyclinD1) of 1000 nM and an IC50 (CDK6/CyclinD3) of 1000 nM. It also gave an IC50 (CDK1/CyclinB1) of 111 nM and an IC50 (CDK2/CyclinE1) of 1.6 nM.

`CC1(NC(=O)OC2COC(c3cc(NC(=O)Cc4cc(F)cc(F)c4)n[nH]3)C2)CCOC1` (stereo not drawn) [Compound 53] showed an IC50 (CDK1/CyclinB1) of 134 nM and an IC50 (CDK2/CyclinE1) of 2.1 nM.

For `Cn1nccc1C(=O)Nc1cc([C@@H]2C[C@H](OC(=O)NC34CC(C3)C4)CO2)[nH]n1` [Compound 97], the IC50 (GSK3β) was 381 nM, the IC50 (CDK1/CyclinB1) was 72.6 nM and the IC50 (CDK2/CyclinE1) was 1.1 nM.

`CC[C@H](C)NC(=O)O[C@@H]1CO[C@H](c2cc(NC(=O)c3ccnn3C)n[nH]2)C1` [Compound 100] gave an IC50 (GSK3β) of 706 nM, an IC50 (CDK1/CyclinB1) of 74.8 nM and an IC50 (CDK2/CyclinE1) of 1.5 nM.

`Cn1nccc1C(=O)Nc1cc([C@@H]2C[C@H](OC(=O)NC(C)(C)C)CO2)[nH]n1` [Compound 102] showed an IC50 (CDK1/CyclinB1) of 133 nM and an IC50 (CDK2/CyclinE1) of 2.5 nM.

`Cn1nccc1C(=O)Nc1cc([C@H]2C[C@@H](OC(=O)NC3CCC3)CO2)[nH]n1` [Compound 122] was tested, and the IC50 (CDK1/CyclinB1) was 89.4 nM and the IC50 (CDK2/CyclinE1) was 1.9 nM.

Molecule `CC(C)NC(=O)O[C@@H]1CC[C@H](c2cc(NC(=O)C34CC(C(=O)NO)(C3)C4)n[nH]2)C1` [Compound 126] has an IC50 (CDK1/CyclinB1) of 142 nM and an IC50 (CDK2/CyclinE1) of 2.5 nM.

Work on `CC(C)NC(=O)O[C@@H]1CC[C@H](C2=CC(NC(=O)[C@H]3C[C@@H]3[C@H](C)O)=NC2)C1` [Compound 136] yielded an IC50 (CDK1/CyclinB1) of 64.6 nM and an IC50 (CDK2/CyclinE1) of 1.2 nM.

With `O=C(NC12CC(F)(C1)C2)O[C@@H]1CC[C@H](c2cc(NC(=O)[C@@H]3CCN(S(=O)(=O)C4CC4)C3)n[nH]2)C1` [Compound 181] the IC50 (CDK1/CyclinB1) was 34.4 nM and the IC50 (CDK2/CyclinE1) was 0.8 nM.

With `C#CC1(NC(=O)O[C@H]2CO[C@@H](c3cc(NC(=O)c4ccnn4C)n[nH]3)C2)CCC1` [Compound 189] the IC50 (CDK1/CyclinB1) was 58.6 nM and the IC50 (CDK2/CyclinE1) was 1 nM.

For `CCC1(NC(=O)O[C@@H]2CO[C@H](c3cc(NC(=O)c4ccnn4C)n[nH]3)C2)CC1` [Compound 204], the IC50 (CDK2/CyclinE1) was 1 nM.

With `Cn1nccc1C(=O)Nc1cc([C@H]2C[C@@H](OC(=O)NC3(CF)CCC3)CO2)[nH]n1` [Compound 211] the IC50 (CDK2/CyclinE1) was 1.4 nM.

In the case of `Cn1nccc1C(=O)Nc1cc([C@@H]2C[C@H](OC(=O)NC3(CF)CCC3)CO2)[nH]n1` [Compound 216], the IC50 (CDK2/CyclinE1) is reported as 1.8 nM.

`Cc1c(C2CC2C(=O)Nc2cc([C@H]3CC[C@@H](OC(=O)NC4(C)CCC4)C3)[nH]n2)cnn1C` (stereo partly drawn) [Compound 217] was tested, and the IC50 (CDK2/CyclinE1) was 29.7 nM.

Molecule `Cc1c([C@@H]2C[C@H]2C(=O)Nc2cc([C@H]3CC[C@@H](OC(=O)NC4(C)CCC4)C3)[nH]n2)cnn1C` [Compound 218] has an IC50 (CDK2/CyclinE1) of 0.6 nM.

Work on `C#C[C@H]1C[C@@H]1C(=O)Nc1cc([C@@H]2CC[C@H](OC(=O)NC3(C)CCC3)C2)[nH]n1` [Compound 219] yielded an IC50 (CDK2/CyclinE1) of 0.5 nM.

`C#C[C@H]1C[C@@H]1C(=O)Nc1cc([C@@H]2CC[C@H](OC(=O)NC3(C)COC3)C2)[nH]n1` [Compound 222] showed an IC50 (CDK2/CyclinE1) of 1.1 nM.

`C#C[C@H]1C[C@@H]1C(=O)Nc1cc([C@@H]2CC[C@H](OC(=O)NC3(C)CC3)C2)[nH]n1` [Compound 223] gave an IC50 (CDK2/CyclinE1) of 0.5 nM.
